In patent US3984554A, “Animal fodder compositions containing a 4-amino-pyrimido-( 4,5,b)-quinoxaline-5,10-dioxide and method of using same” (Bayer Aktiengesellschaft, priority 1970, dated 1976):
≈ marks a conversion by molar mass, not a printed value.

Assays:
[1] = tested on: Staphylococcus aureus 133; assay: Minimum inhibitory concentration (MIC) in the plate test; type: cell-based; conditions: pH 7.4
Excerpt: (§1) The compounds according to the invention are effective against Gram-negative and Gram-positive bacteria. Favorable inhibition values are obtained in the plate test (Table 1) against staphylococci and streptococci which are Gram-positive bacteria, and against enterobacteria (for example Escherichia coli, Proteus and Klebsiella) which are Gram-negative bacteria.
(§2) Minimum inhibitory concentration (MIC) in the plate test:
(§3) The medium used had the following composition
(§4) Disodium phosphate 2.0 g
(§5) Adenine sulphate 0.01 g
(§6) Guanine hydrochloride 0.01 g
(§7) 1000 ml of distilled water
(§8) pH value of the medium:
(§9) Minimum inhibitory concentrations in γ/ml

Proteus vulgaris = assay: as above; type: cell-based; conditions: pH 7.4
Excerpt: as §1, §2, §3, §4, §5, §6, §7, §8, §9

Escherichia coli A 261 = assay: as above; type: cell-based; conditions: A261, pH 7.4
Excerpt: as §1, §2, §3, §4, §5, §6, §7, §8, §9

Escherichia coli C 165 = assay: as above; type: cell-based; conditions: C165, pH 7.4
Excerpt: as §1, §2, §3, §4, §5, §6, §7, §8, §9

[2] = tested on: Pseudomonas aeruginosa Bonn; assay: as above; type: cell-based; conditions: pH 7.4
Excerpt: as §1, §2, §3, §4, §5, §6, §7, §8, §9

Klebsiella 8085 = assay: as above; type: cell-based; conditions: pH 7.4
Excerpt: as §1, §2, §3, §4, §5, §6, §7, §8, §9

Streptococcus pyogenes W = assay: as above; type: cell-based; conditions: pH 7.4
Excerpt: as §1, §2, §3, §4, §5, §6, §7, §8, §9

[3] = Chick fattening experiment (fodder additive); type: in vivo; conditions: chicks, 20 ppm in fodder; for Ratio of total weight increase/control: control 100.0
Excerpt: The good effectiveness of the compounds according to the invention as fodder additives can be seen from the chick fattening experiment described below (Table 2).
The substances, ground with the fodder, were fed to one-day old chicks. The feeding lasted for seven weeks. Table 2 below gives the experimental data for the compound obtainable according to Example 2, for each of the 7 weeks.

MIC [1] [µg/mL]	MIC (Proteus vulgaris) [µg/mL]	MIC (Escherichia coli A 261) [µg/mL]	MIC (Escherichia coli C 165) [µg/mL]	MIC [2] [µg/mL]	MIC (Klebsiella 8085) [µg/mL]	MIC (Streptococcus pyogenes W) [µg/mL]	SMILES	also measured
10 (≈ 32.1 µM)							[O-][n+]1c2ccccc2[n+]([O-])c2c(NC3CCCCC3)ncnc21 [Example 6]	
2.5 (≈ 10.3 µM)	5 (≈ 20.6 µM)	5 (≈ 20.6 µM)	5 (≈ 20.6 µM)	50 (≈ 206 µM)	5 (≈ 20.6 µM)	20 (≈ 82.2 µM)	CNc1ncnc2c1[n+]([O-])c1ccccc1[n+]2[O-] [Example 1, 4-methylamino-pyrimido-(4,5,b)-quinoxaline-5,10-dioxide]	
100 (≈ 366 µM)	100 (≈ 366 µM)	100 (≈ 366 µM)	100 (≈ 366 µM)	100 (≈ 366 µM)	150 (≈ 549 µM)	10 (≈ 36.6 µM)	[O-][n+]1c2ccccc2[n+]([O-])c2c(NCCO)ncnc21 [Example 7]	
5 (≈ 19.4 µM)	10 (≈ 38.9 µM)	20 (≈ 77.7 µM)	160 (≈ 622 µM)	150 (≈ 583 µM)	10 (≈ 38.9 µM)	20 (≈ 77.7 µM)	CCNc1ncnc2c1[n+]([O-])c1ccccc1[n+]2[O-] [Example 2]	Total weight increase ([3]; week 1, control 84): 92 g; Ratio of total weight increase/control ([3]; week 1): 109.5%; Ratio of total weight increase/control ([3]; week 2): 105.6%; Total weight increase ([3]; week 2, control 248): 262 g; Ratio of total weight increase/control ([3]; week 3): 108.6%; Total weight increase ([3]; week 3, control 429): 466 g; Ratio of total weight increase/control ([3]; week 4): 111.7%; Total weight increase ([3]; week 4, control 607): 678 g; Ratio of total weight increase/control ([3]; week 5): 107.7%; Total weight increase ([3]; week 5, control 922): 993 g; Ratio of total weight increase/control ([3]; week 6): 104.8%; Total weight increase ([3]; week 6, control 1250): 1310 g; Ratio of total weight increase/control ([3]; week 7): 106.4%; Total weight increase ([3]; week 7, control 1479): 1574 g
10 (≈ 36.9 µM)	100 (≈ 369 µM)	100 (≈ 369 µM)	100 (≈ 369 µM)	150 (≈ 553 µM)		20 (≈ 73.7 µM)	CC(C)Nc1ncnc2c1[n+]([O-])c1ccccc1[n+]2[O-] [Example 4]	
10 (≈ 36.9 µM)	100 (≈ 369 µM)	100 (≈ 369 µM)	100 (≈ 369 µM)	150 (≈ 553 µM)	100 (≈ 369 µM)	20 (≈ 73.7 µM)	CCCNc1ncnc2c1[n+]([O-])c1ccccc1[n+]2[O-] [Example 3]	
10 (≈ 35 µM)						20 (≈ 70.1 µM)	CCCCNc1ncnc2c1[n+]([O-])c1ccccc1[n+]2[O-] [Example 5]	
